Measurements from ChEMBL document CHEMBL4706757, “Novel Substituted Pyridazines as Splicing Modulators for Modulating Splicing of mRNA and Uses Thereof for Treating Diseases” (ACS Med Chem Lett, 2021).

Key:
Format in all cases: cell-based
[1] = Modulation of HTT mRNA exon 49-50 splicing in human GM04724 cells incubated for 24 hrs by TaqMan qPCR analysis; conditions: GM04724, 24 h
[2] = Modulation of HTT mRNA exon 49b splicing in human GM04724 cells incubated for 24 hrs by TaqMan qPCR analysis; conditions: GM04724, 24 h
[3] = Modulation of HTT mRNA splicing in human GM04724 cells assessed as mHTT protein level incubated for 48 hrs by 2B7-MW1 assay; conditions: GM04724, 48 h

Measured: EC50

C[C@@]12CCC[C@@](C)(N1)[C@H](F)[C@H](Oc1ccc(-c3ccc(-c4cn[nH]c4)cc3O)nn1)C2
≤ 0.01 nM: all assays above

Cn1cc(-c2cc(O)c(-c3ccc(O[C@@H]4C[C@@H]5CCC[C@@H](N5)[C@@H]4F)nn3)cc2F)cn1
≤ 0.01 nM: all assays above

Oc1cc(-c2cn[nH]c2)c(F)cc1-c1ccc(O[C@@H]2C[C@@H]3CCC[C@@H](N3)[C@@H]2F)nn1
≤ 0.01 nM: all assays above

Oc1cc(-c2cn[nH]c2)c(F)cc1-c1ccc(O[C@H]2C[C@H]3CCC[C@H](N3)[C@H]2F)nn1
≤ 0.01 nM: all assays above

Oc1cc(-c2cn[nH]c2)ccc1-c1ccc(O[C@H]2C[C@H]3CCC[C@H](N3)[C@H]2F)nn1
≤ 0.01 nM: all assays above

Oc1cc(-c2cn[nH]c2)ccc1-c1ccc(O[C@@H]2C[C@@H]3CCC[C@@H](N3)[C@@H]2F)nn1
≤ 0.01 nM: all assays above

C[C@]12CCC[C@](C)(N1)[C@@H](F)[C@@H](Oc1ccc(-c3ccc(-c4cn[nH]c4)cc3O)nn1)C2
≤ 0.01 nM: all assays above

Cn1cc(-c2cc(O)c(-c3ccc(O[C@H]4C[C@H]5CCC[C@H](N5)[C@H]4F)nn3)cc2F)cn1
≤ 0.01 nM: all assays above
